Measured values: patent US20210196714A1, “COMPOSITIONS AND METHODS FOR TREATING DISORDERS CHARACTERIZED WITH ABERRANT RAS/MAPK SIGNALING” (Duke University, priority 2018, published 2021)
“Also recorded” adds a separate entry of the source.

Experiments:
[1] = tested on: kmt2d+/−×kmt2d+/− progeny; assay: Jaw defect in stable kmt2d mutant intercross progeny; assay type: in vivo, zebrafish; details: 100 mM dmDf, 5 dpf
From the text: (§1) FIG. 12: Treatment with dmDf rescues the defects of stable kmt2d mutant. kmt2d+/− adults were in-crossed and the embryos were then collected at 1 dpf, 2 dpf and 5 dpf to assess dmDf efficacy. […] Error bars show SEM (standard error of the mean).
(§2) Although the small molecule testing data in CRISPR F0 mosaic models are consistent with morphant phenotypes (and rescue), experiments recognized the necessity of testing the potential efficacy of dmDf in a stable genetic model that is a better genotypic proxy to human patients. […] In addition to examining proliferation of cells in the brain, experiments assessed whether neural differentiation is affected (see, Van Laarhoven, P. M. et al. Hum Mol Genet 24, 4443-53 (2015)).
(§3) For convergence and extension (CE) phenotyping, embryos were scored as described (see, Leitch, C. C. et al. Nat Genet 40, 443-8 (2008)) at the 8-10 somite stage, and images were captured using an AZ100 microscope and NIS Elements software (Nikon). […] The distance between Meckel's (MK) and ceratohyal (CH) cartilages was measured on ventral bright field images with Image J (NIH). […] Fluorescence signal on embryo heads was imaged with the Nikon AZ100 microscope and DS-Qi1MC digital camera using […] Z-stacks to generate extended depth of focus images. Cell numbers were quantified using the ImageJ ICTN plugin (NIH). […]

[2] = tested on: kmt2d+/−×kmt2d+/− progeny; assay: Neural differentiation (sox2/huc staining) in stable kmt2d mutant; assay type: in vivo, zebrafish; details: 100 mM dmDf, 2 dpf
From the text: as §1, §2, §3

[3] = Solubility test in egg water; assay type: physicochemical; details: DMSO stock diluted in water (100×)
Experimental: To guard against possible bias, the tool and negative control compounds were interspersed across the experiment and the zebrafish phenotyping team was blinded to the identity of each compound. Typical of small molecule storage, each of the 29 compounds was dissolved in dimethyl sulfoxide (DMSO). Therefore, such compounds were first diluted in water (100×) and its solubility tested in egg water; three compounds were insoluble and were thus removed from further testing (see, FIG. 1A). Next, each compound was diluted serially with egg water and toxicity tested by assaying the percentage of abnormal or dead embryos across three different concentrations (10 μM, 1 μM, 100 nM; FIG. 1B).

kmt2d-CRISPR embryos = assay: Brain cell proliferation (pHH3 immunostaining) in kmt2d-mosaic mutants; assay type: in vivo, zebrafish; details: 100 nM, 2 dpf, listed as dmDf
From the text: Intellectual disability represents a major phenotype in KS, with some studies reporting almost 90% of patients to be affected (see, Wessels, M. W., et al. Clin Dysmorphol 11, 95-102 (2002)). […] Previous studies have shown that defects in proliferation in the developing zebrafish brain can be a proxy for neurodevelopmental and neurocognitive traits, especially in the context of microcephaly (see, Borck, G. et al. Genome Res 25, 609 (2015); Brooks, S. S. et al. Genetics 198, 723-33 (2014); O'Rawe, J. A. et al. Am J Hum Genet 97, 922-32 (2015); Wortmann, S. B. et al. Am J Hum Genet 96, 245-57 (2015)), a phenotype reported commonly in KS (see, Matsumoto, N. & Niikawa, N. Am J Med Genet C Semin Med Genet 117C, 57-65 (2003)).
as §3

CC(C)c1nc(-c2cccc(NS(=O)(=O)c3c(F)cccc3F)c2F)c(-c2ccnc(N)n2)s1 [Compound 8, desmethyl-Dabrafenib]
mandibular length / jaw defect [1]: rescues significantly; also recorded: rescue of the mandibular length | perturbed differentiation (organization of sox2+ and huc+ cells) [2]: appears to ameliorate; also recorded: attenuated this pathology | solubility tested in egg water [3]: soluble | total number of proliferating (pHH3+) cells in brain (kmt2d-CRISPR embryos): can be rescued; also recorded: restored the total number of proliferating cells to wild type levels
